Where two headings read alike, the source gives them in different places.

This note sets out measurements from patent publication US12681018B2, “Photoactive fluorescent compounds and use thereof for labeling of proteins” (EIKON THERAPEUTICS, INC., priority 2021, dated 2026).

This assay deals with T1, Estrogen Receptor-HaloTag (ER-Halo) fusion (Rhodococcus rhodochrous, UniProt P0A3G2, A155T/A167V/A172T/A224E/C128F/C176G/D78G/E160K/E257K/H272N/K175M/K195N/L47V/L88M/N227D/P291S/S58T/T264A/Y273L/Y87F).
T1 construct: expressed in transfected cells; host or cells: U2OS
In kind it is cell-based. To be noted: tracks in WT U2OS cells, ratio with PA-JF549 in the numerator, 100 nM, 1 hr. The procedure: Using the methods described in Tables 4a and 4b above, labelling specificity of the compound of Examples 1-24 was measured and compared to PA-JF549. U2OS cells wild type or expressing ER-HaloTag fusion were incubated with PA-JF549 or Examples 1-24 for 1 hr. […] Labeling specificity, as measured by the fold reduction in nonspecific labeling of WT cells, was calculated by number of tracks measured in WT cells for Examples 1-24 compared to the number of tracks in WT cells for PA-JF549, expressed as the ratio with PA-JF549 in the numerator.

T1 sequence (P03372 whole entry, the tested form may be a part): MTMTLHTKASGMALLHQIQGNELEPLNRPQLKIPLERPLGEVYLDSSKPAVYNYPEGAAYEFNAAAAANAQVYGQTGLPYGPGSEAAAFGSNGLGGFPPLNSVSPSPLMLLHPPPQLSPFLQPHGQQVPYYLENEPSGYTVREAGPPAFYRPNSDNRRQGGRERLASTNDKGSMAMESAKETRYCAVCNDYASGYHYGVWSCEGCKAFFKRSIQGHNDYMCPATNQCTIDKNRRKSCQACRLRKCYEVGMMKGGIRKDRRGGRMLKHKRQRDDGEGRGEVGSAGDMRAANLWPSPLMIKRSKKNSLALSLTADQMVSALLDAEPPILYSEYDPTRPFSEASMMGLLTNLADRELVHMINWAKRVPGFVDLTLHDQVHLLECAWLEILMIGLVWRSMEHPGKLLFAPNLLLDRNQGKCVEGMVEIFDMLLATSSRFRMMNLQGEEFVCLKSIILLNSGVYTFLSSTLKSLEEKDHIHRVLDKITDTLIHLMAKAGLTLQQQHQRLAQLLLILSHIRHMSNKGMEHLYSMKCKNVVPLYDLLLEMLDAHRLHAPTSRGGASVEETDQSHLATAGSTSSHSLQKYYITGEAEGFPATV
T1 sequence (P0A3G2 other isoform, or with tags, fused parts or gaps with the stated changes): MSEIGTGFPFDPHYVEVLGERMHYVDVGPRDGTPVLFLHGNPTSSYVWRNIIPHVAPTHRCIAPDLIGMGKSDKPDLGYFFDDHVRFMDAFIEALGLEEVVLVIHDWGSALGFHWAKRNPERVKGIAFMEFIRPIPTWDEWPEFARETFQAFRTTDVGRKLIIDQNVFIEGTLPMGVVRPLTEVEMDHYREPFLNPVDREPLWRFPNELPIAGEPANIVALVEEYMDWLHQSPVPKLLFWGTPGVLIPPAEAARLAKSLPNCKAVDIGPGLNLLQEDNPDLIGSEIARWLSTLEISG

`CN1CC2CC(C1)N2c1ccc2c(c1)Oc1cc(N3C4CC3CN(C)C4)ccc1C21C(=[N+]=[N-])C(=O)c2ccc(C(=O)NCCOCCOCCCCCCCl)cc21` (stereo not shown) [Example 18, N-(2-(2-((6-chlorohexyl)oxy)ethoxy)ethyl)-2-diazo-3′,6′-bis(3-methyl-3,6-diazabicyclo[3.1.1]heptan-6-yl)-3-oxo-2,3-dihydrospiro[indene-1,9′-xanthene]-6-carboxamide]: the “Fold reduction in nonspecific labeling” value reads like this: (Table 4a) greater than 10; (Table 4b) greater than 10.
Take `[N-]=[N+]=C1C(=O)c2ccc(C(=O)NCCOCCOCCCCCCCl)cc2C12c1ccc(N3CC(O)C3)cc1Oc1cc(N3CC(O)C3)ccc12` [Example 7, N-(2-(2-((6-chlorohexyl)oxy)ethoxy)ethyl)-2-diazo-3′,6′-bis(3-hydroxyazetidin-1-yl)-3-oxo-2,3-dihydrospiro[indene-1,9′-xanthene]-6-carboxamide]: the “Fold reduction in nonspecific labeling” value by setting is: (Table 4a) greater than 10; (Table 4b) greater than 10.
Regarding `CN(CCOCCOCCCCCCCl)C(=O)c1ccc2c(c1)C1(C(=[N+]=[N-])C2=O)c2ccc(N3CCC3)cc2Oc2cc(N3CCC3)ccc21` [Example 8, 3′,6′-di(azetidin-1-yl)-N-(2-(2-((6-chlorohexyl)oxy)ethoxy)ethyl)-2-diazo-N-methyl-3-oxo-2,3-dihydrospiro[indene-1,9′-xanthene]-6-carboxamide], the “Fold reduction in nonspecific labeling” value runs as follows: (Table 4a) 5-10; (Table 4b) 5-10.
Regarding “3′,6′-di(azetidin-1-yl)-6-((2-(2-((6-chlorohexyl)oxy)ethoxy)ethyl)amino)-3H-spiro[isobenzofuran-1,9′-xanthen]-3-one [Example 21]”, under “Table 4b”, the “Fold reduction in nonspecific labeling” value is recorded as 5-10.
As for `CN(C)C(=O)[C@H]1CCN(c2ccc3c(c2)Oc2cc(N4CC[C@H](C(=O)N(C)C)C4)ccc2C32C(=[N+]=[N-])C(=O)c3ccc(C(=O)NCCOCCOCCCCCCCl)cc32)C1` [Example 16, (3S,3′S)-1,1′-(6-((2-(2-((6-chlorohexyl)oxy)ethoxy)ethyl)carbamoyl)-2-diazo-3-oxo-2,3-dihydrospiro[indene-1,9′-xanthene]-3′,6′-diyl)bis(N,N-dimethylpyrrolidine-3-carboxamide)], the “Fold reduction in nonspecific labeling” value (Table 4a) is reported as 5-10 and the “Fold reduction in nonspecific labeling” value (Table 4b) was 5-10.
As for `CNC(=O)C1CN(c2ccc3c(c2)Oc2cc(N4CC(C(=O)NC)C4)ccc2C32C(=[N+]=[N-])C(=O)c3ccc(C(=O)NCCOCCOCCCCCCCl)cc32)C1` [Example 12, 1,1′-(6-((2-(2-((6-chlorohexyl)oxy)ethoxy)ethyl)carbamoyl)-2-diazo-3-oxo-2,3-dihydrospiro[indene-1,9′-xanthene]-3′,6′-diyl)bis(N-methylazetidine-3-carboxamide)], the “Fold reduction in nonspecific labeling” value reads like this: (Table 4a) greater than 10; (Table 4b) greater than 10.
On to `COC(=O)[C@H]1CCN1c1ccc2c(c1)Oc1cc(N3CC[C@@H]3C(=O)OC)ccc1C21C(=[N+]=[N-])C(=O)c2ccc(C(=O)NCCOCCOCCCCCCCl)cc21` [Example 6], for which the “Fold reduction in nonspecific labeling” value is given as 1-5 (Table 4a) and 1-5 (Table 4b).
In the case of `[N-]=[N+]=C1C(=O)c2ccc(C(=O)NCCOCCOCCCCCCCl)cc2C12c1ccc(N3CC(C(=O)N4CCOCC4)C3)cc1Oc1cc(N3CC(C(=O)N4CCOCC4)C3)ccc12` [Example 9, N-(2-(2-((6-chlorohexyl)oxy)ethoxy)ethyl)-2-diazo-3′,6′-bis(3-(morpholine-4-carbonyl)azetidin-1-yl)-3-oxo-2,3-dihydrospiro[indene-1,9′-xanthene]-6-carboxamide], the “Fold reduction in nonspecific labeling” value was greater than 10 (Table 4a) and greater than 10 (Table 4b).
For the compound `CN(C)C(=O)[C@@H]1CCN1c1ccc2c(c1)Oc1cc(N3CC[C@H]3C(=O)N(C)C)ccc1C21C(=[N+]=[N-])C(=O)c2ccc(C(=O)NCCOCCOCCCCCCCl)cc21` [Example 14, (2S,2'S)-1,1′-(6-((2-(2-((6-chlorohexyl)oxy)ethoxy)ethyl)carbamoyl)-2-diazo-3-oxo-2,3-dihydrospiro[indene-1,9′-xanthene]-3′,6′-diyl)bis(N,N-dimethylazetidine-2-carboxamide)], the “Fold reduction in nonspecific labeling” value is greater than 10 (Table 4a) and greater than 10 (Table 4b).
Take `[N-]=[N+]=C1C(=O)c2ccc(NC(=O)CCOCCOCCCCCCCl)cc2C12c1ccc(N3CCC3)cc1Oc1cc(N3CCC3)ccc12` [Example 22, 3-(2-((6-chlorohexyl)oxy)ethoxy)-N-(3′,6′-di(azetidin-1-yl)-2-diazo-3-oxo-2,3-dihydrospiro[indene-1,9′-xanthen]-6-yl)propanamide]: the “Fold reduction in nonspecific labeling” value (Table 4b) is 5-10.
Same read-out and setting: as for “(E)-3′,6′-di(azetidin-1-yl)-6-(4-(2-((6-chlorohexyl)oxy)ethoxy)but-1-en-1-yl)-2-diazospiro[indene-1,9′-xanthen]-3(2H)-one and (Z)-3′,6′-di(azetidin-1-yl)-6-(4-(2-((6-chlorohexyl)oxy)ethoxy)but-1-en-1-yl)-2-diazospiro[indene-1,9′-xanthen]-3(2H)-one [Example 23]”, the figure is greater than 10.
As to `[N-]=[N+]=C1C(=O)c2ccc(C(=O)NCCOCCOCCCCCCCl)cc2C12c1ccc(N3CC(C(=O)N4CCCC4)C3)cc1Oc1cc(N3CC(C(=O)N4CCCC4)C3)ccc12` [Example 10, N-(2-(2-((6-chlorohexyl)oxy)ethoxy)ethyl)-2-diazo-3-oxo-3′,6′-bis(3-(pyrrolidine-1-carbonyl)azetidin-1-yl)-2,3-dihydrospiro[indene-1,9′-xanthene]-6-carboxamide], the “Fold reduction in nonspecific labeling” value by setting is: (Table 4a) 5-10; (Table 4b) 5-10.
On to `[N-]=[N+]=C1C(=O)c2ccc(C(=O)NCCOCCOCCCCCCCl)cc2C12c1ccc(N3C4COCC3C4)cc1Oc1cc(N3C4COCC3C4)ccc12` (stereo not shown) [Example 17, 3′,6′-di(3-oxa-6-azabicyclo[3.1.1]heptan-6-yl)-N-(2-(2-((6-chlorohexyl)oxy)ethoxy)ethyl)-2-diazo-3-oxo-2,3-dihydrospiro[indene-1,9′-xanthene]-6-carboxamide], for which the “Fold reduction in nonspecific labeling” value reads like this: (Table 4a) 1-5; (Table 4b) 1-5.
For “1,1′-(6-((2-(2-((6-chlorohexyl)oxy)ethoxy)ethyl)carbamoyl)-2-diazo-3-oxo-2,3-dihydrospiro[indene-1,9′-xanthene]-3′,6′-diyl)bis(azetidine-3-carboxamide [Example 20]”, the “Fold reduction in nonspecific labeling” value (Table 4b) is on record as greater than 10.
Same read-out and setting: then `CN(C)C(=O)C1CN(c2ccc3c(c2)[Si](C)(C)c2cc(N4CC(C(=O)N(C)C)C4)ccc2C32C(=[N+]=[N-])C(=O)c3ccc(C(=O)NCCOCCOCCCCCCCl)cc32)C1` [Example 19], with greater than 10; and `[N-]=[N+]=C1C(=O)c2ccc(CCCCOCCOCCCCCCCl)cc2C12c1ccc(N3CCC3)cc1Oc1cc(N3CCC3)ccc12` [Example 24, 3′,6′-di(azetidin-1-yl)-6-(4-(2-((6-chlorohexyl)oxy)ethoxy)butyl)-2-diazospiro[indene-1,9′-xanthen]-3(2H)-one], with 1-5.
As to `CN(C)C1CN(c2ccc3c(c2)Oc2cc(N4CC(N(C)C)C4)ccc2C32C(=[N+]=[N-])C(=O)c3ccc(C(=O)NCCOCCOCCCCCCCl)cc32)C1` [Example 13, N-(2-(2-((6-chlorohexyl)oxy)ethoxy)ethyl)-2-diazo-3′,6′-bis(3-(dimethylamino)azetidin-1-yl)-3-oxo-2,3-dihydrospiro[indene-1,9′-xanthene]-6-carboxamide], the “Fold reduction in nonspecific labeling” value by setting is: (Table 4a) 5-10; (Table 4b) 5-10.
As to `CN(C)C(=O)C1CN(c2ccc3c(c2)Oc2cc(N4CC(C(=O)N(C)C)C4)ccc2C32C(=[N+]=[N-])C(=O)c3ccc(C(=O)NCc4ccc(COc5nc(N)nc6nc[nH]c56)cc4)cc32)C1` [Example 5], the “Fold reduction in nonspecific labeling” value reads like this: (Table 4a) greater than 10; (Table 4b) greater than 10.
For the compound `[N-]=[N+]=C1C(=O)c2ccc(C(=O)NCCOCCOCCCCCCCl)cc2C12c1ccc(N3CC[C@@H]3CO)cc1Oc1cc(N3CC[C@@H]3CO)ccc12` [Example 15, N-(2-(2-((6-chlorohexyl)oxy)ethoxy)ethyl)-2-diazo-3′,6′-bis((R)-2-(hydroxymethyl)azetidin-1-yl)-3-oxo-2,3-dihydrospiro[indene-1,9′-xanthene]-6-carboxamide], the “Fold reduction in nonspecific labeling” value (Table 4a) is given as 5-10 and the “Fold reduction in nonspecific labeling” value (Table 4b) is 5-10.
Consider `CN1CCN(C(=O)C2CN(c3ccc4c(c3)Oc3cc(N5CC(C(=O)N6CCN(C)CC6)C5)ccc3C43C(=[N+]=[N-])C(=O)c4ccc(C(=O)NCCOCCOCCCCCCCl)cc43)C2)CC1` [Example 11, N-(2-(2-((6-chlorohexyl)oxy)ethoxy)ethyl)-2-diazo-3′,6′-bis(3-(4-methylpiperazine-1-carbonyl)azetidin-1-yl)-3-oxo-2,3-dihydrospiro[indene-1,9′-xanthene]-6-carboxamide], for which the “Fold reduction in nonspecific labeling” value is on record as 1-5 (Table 4a) and 1-5 (Table 4b).
